# Test results from PubChem BioAssay (NCI).
# Values joined by “and” are separate entries in the source; they are usually repeats but may differ in a detail not shown here. Equal values may be shown once.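 Five compound concentrations were applied to cells in 96-well plates for 48 hours; endpoints were derived by simple linear interpolation of the resulting dose-response curve. GI50: concentration for 50% inhibition of growth. TGI denotes the concentration required for complete inhibition of growth.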 Where a SMILES comes first, the peptide text is derived from it. The star is where a group is joined. Boc = CC(C)(C)OC(=O)*
# System: MDA-N
# Test: NCI tumour cell line growth inhibition, 48 h
Structure (SMILES),GI50,TGI
COC(=O)c1cc2c(s1)-c1nccc3c1c(nc1ccccc13)C2=O,32.9 µM,> 100 µM
CC1(Br)Cc2ccccc2C1=O (stereo not given),4.45 µM,18.2 µM
COc1ccc2c(c1)c[n+](C)c1c3cc(OC)c(OC)cc3ccc21,–,3.08 µM and 8.07 µM
Cc1cc2cc3c(=O)[nH]c(=O)[nH]c3nc2cc1C,–,> 100 µM
CCc1c(Cl)c(C)cc(O)c1Cl,–,41.3 µM
C=COC(=O)N[C@H]1CCc2cc(OC)c(OC)c(OC)c2-c2ccc(SC)c(=O)cc21,–,< 0.01 µM
CN(C)c1ncnc2c1ncn2CCn1cnc2c(N(C)C)ncnc21,–,> 100 µM
O=C(O)c1ccc(C(=O)O)c2c(C(=O)O)ccc(C(=O)O)c12,–,> 100 µM
CSc1nc(NC2OC(COC(C)=O)C(OC(C)=O)C(OC(C)=O)C2OC(C)=O)c(N=CC=Nc2c(NC3OC(COC(C)=O)C(OC(C)=O)C(OC(C)=O)C3OC(C)=O)nc(SC)n(C)c2=O)c(=O)n1C (stereo not given),–,> 100 µM
S=c1[nH]c2c(Cl)c(Cl)c(Cl)c(Cl)c2[nH]1,–,51.4 µM
O=C(/C=C/C=C/c1ccccc1)c1ccccc1,–,30.4 µM
Nc1ccn(C2OC(CO)C(O)C2O)c(=O)n1 (stereo not given),–,> 500 µM
COC(=O)C(C)NC(=O)C(CCSC)NC(=O)C(Cc1ccccc1)NC(=O)OC(C)(C)C (stereo not drawn) (Boc-Phe-Met-Ala-OMe; configuration not given here),48.9 µg/mL,> 100 µM
C/C(=N\NC(=S)N1CCCCCC1)c1ccccn1,0.169 µM,1.5 µM
Oc1ccc2ccccc2c1N=Nc1ccc(Br)cc1,–,> 100 µM
CC(C)=CCc1cc2c(cc1O)OC[C@H]1c3cc4c(cc3O[C@@H]21)OCO4,–,> 100 µM
COc1cc2c3c(c1OC)-c1cc4c(cc1CC3(C#N)N(C(=O)c1ccccc1)CC2)OCO4 (stereo not given),–,> 100 µM

# System: XF 498 CNS
# Test: NCI tumour cell line growth inhibition, 48 h
Structure (SMILES),TGI,GI50
Cn1cnnc1Sc1c([N+](=O)[O-])ncn1C,> 100 µM,–
C=CCC1(CN(C)C)CC/C(=C\c2ccc(Cl)cc2)C1=O (stereo not given),> 100 µM,–
C[Si](C)(C)/C(I)=C/CO,31.9 µM,–
C[N+](C)(C)CC1CCC/C1=N\OC(=O)c1ccccc1 (stereo not given),> 100 µM,–
CC(=O)N1CCC(=O)/C(=C/c2ccccc2)C1,> 100 µM,–
C[Si](C)(C)/C(Br)=C\CCN1C(=O)CCC1=O,> 100 µM,–
Cc1ccc(S(=O)OCc2c(C)c(C)c(COS(=O)c3ccc(C)cc3)c(C)c2C)cc1 (stereo not given),> 100 µM,–
C[C@]12CCC(=O)C=C1CC[C@@H]1C2CC[C@]2(C)Nc3[nH]ncc3CC12 (stereo not given in full),> 100 µM,–
COc1ccc2c(c1)c[n+](C)c1c3cc(OC)c(OC)cc3ccc21,17.1 µM,–
CC(C)(C)[Si](C)(C)OC1C(=O)C[C@H]2CCCC[C@@H]12 (stereo not given in full),> 100 µM,–
CCN(CC)CCSc1c2ccccc2nc2c(OC)ccc(OC)c12,> 21.1 µM,–
CCOC(=O)c1ccc(N=Nc2cc(C(=O)OCC)ccc2O)cc1,22 µM,–
[N-]=[N+]=N/C1=C/CCCCC(=O)C1,> 100 µM,–
C=COC(=O)N[C@H]1CCc2cc(OC)c(OC)c(OC)c2-c2ccc(SC)c(=O)cc21,> 62.3 µM,–
Cc1ccc(NC(=O)CCc2nnc(N)o2)cc1,> 100 µM,–
CSc1nc(NC2OC(COC(C)=O)C(OC(C)=O)C(OC(C)=O)C2OC(C)=O)c(N=CC=Nc2c(NC3OC(COC(C)=O)C(OC(C)=O)C(OC(C)=O)C3OC(C)=O)nc(SC)n(C)c2=O)c(=O)n1C (stereo not given),30.3 µM,–
CCOC(=O)C1SC(=Nc2ccccc2)N=C1C (stereo not given),> 100 µM,–
Nc1ccn(C2OC(CO)C(O)C2O)c(=O)n1 (stereo not given),> 494 µM,–
O=C1CCC(=O)c2c1c(O)c1ccncc1c2O,32.7 µM,–
C=CCN1CCC23c4c5ccc(O)c4OC2C(=NN=C2CCC4(O)C6Cc7ccc(O)c8c7C4(CCN6CC=C)C2O8)CCC3(O)C1C5 (stereo not given),32.9 µM,–
CN(C)CCNC(=O)c1cccc2c(Nc3ccc(S(=O)(=O)N=C(N)N)cc3)c3ccccc3nc12,47.4 µM,–
CC1(C)CC(=O)CC(=Nc2ccc([N+](=O)[O-])cc2)C1,> 100 µM,–
C/C(=N\NC(=S)N1CCCCCC1)c1ccccn1,–,14.1 nM
COc1cc2c3c(c1OC)-c1cc4c(cc1CC3(C#N)N(C(=O)c1ccccc1)CC2)OCO4 (stereo not given),24.8 µM,–

# System: HOP-18 NSCLC
# Test: NCI tumour cell line growth inhibition, 48 h
Structure (SMILES),TGI,GI50
Cn1cnnc1Sc1c([N+](=O)[O-])ncn1C,82.5 µM,–
C=CCC1(CN(C)C)CC/C(=C\c2ccc(Cl)cc2)C1=O (stereo not given),> 100 µM,–
C[Si](C)(C)/C(I)=C/CO,64.1 µM,–
C[N+](C)(C)CC1CCC/C1=N\OC(=O)c1ccccc1 (stereo not given),> 100 µM,–
CC(=O)N1CCC(=O)/C(=C/c2ccccc2)C1,51.2 µM,–
C[Si](C)(C)/C(Br)=C\CCN1C(=O)CCC1=O,> 100 µM,–
Cc1ccc(S(=O)OCc2c(C)c(C)c(COS(=O)c3ccc(C)cc3)c(C)c2C)cc1 (stereo not given),> 100 µM,–
COc1ccc2c(c1)c[n+](C)c1c3cc(OC)c(OC)cc3ccc21,29.4 µM,–
CC(C)(C)[Si](C)(C)OC1C(=O)C[C@H]2CCCC[C@@H]12 (stereo not given in full),> 100 µM,–
CCOC(=O)c1ccc(N=Nc2cc(C(=O)OCC)ccc2O)cc1,> 100 µM,–
C=COC(=O)N[C@H]1CCc2cc(OC)c(OC)c(OC)c2-c2ccc(SC)c(=O)cc21,> 100 µM,–
CSc1nc(NC2OC(COC(C)=O)C(OC(C)=O)C(OC(C)=O)C2OC(C)=O)c(N=CC=Nc2c(NC3OC(COC(C)=O)C(OC(C)=O)C(OC(C)=O)C3OC(C)=O)nc(SC)n(C)c2=O)c(=O)n1C (stereo not given),> 100 µM,–
CCOC(=O)C1SC(=Nc2ccccc2)N=C1C (stereo not given),> 100 µM,–
Nc1ccn(C2OC(CO)C(O)C2O)c(=O)n1 (stereo not given),250 µM,77.1 µM
O=C1CCC(=O)c2c1c(O)c1ccncc1c2O,60.5 µM,–
C=CCN1CCC23c4c5ccc(O)c4OC2C(=NN=C2CCC4(O)C6Cc7ccc(O)c8c7C4(CCN6CC=C)C2O8)CCC3(O)C1C5 (stereo not given),> 100 µM,–
CC1(C)CC(=O)CC(=Nc2ccc([N+](=O)[O-])cc2)C1,> 100 µM,–
C/C(=N\NC(=S)N1CCCCCC1)c1ccccn1,0.927 µM and 6.14 µM,0.72 µM
COc1cc2c3c(c1OC)-c1cc4c(cc1CC3(C#N)N(C(=O)c1ccccc1)CC2)OCO4 (stereo not given),93.2 µM,–

# System: M19-MEL melanoma
# Test: NCI tumour cell line growth inhibition, 48 h
Structure (SMILES),TGI,GI50
C=CCC1(CN(C)C)CC/C(=C\c2ccc(Cl)cc2)C1=O (stereo not given),> 92.7 µM,–
C[Si](C)(C)/C(I)=C/CO,53.1 µM,–
C[N+](C)(C)CC1CCC/C1=N\OC(=O)c1ccccc1 (stereo not given),> 100 µM,–
CC(=O)N1CCC(=O)/C(=C/c2ccccc2)C1,58.3 µM,–
C[Si](C)(C)/C(Br)=C\CCN1C(=O)CCC1=O,> 100 µM,–
Cc1ccc(S(=O)OCc2c(C)c(C)c(COS(=O)c3ccc(C)cc3)c(C)c2C)cc1 (stereo not given),> 100 µM,–
C[C@]12CCC(=O)C=C1CC[C@@H]1C2CC[C@]2(C)Nc3[nH]ncc3CC12 (stereo not given in full),> 100 µM,–
COc1ccc2c(c1)c[n+](C)c1c3cc(OC)c(OC)cc3ccc21,15.8 µM,–
CC(C)(C)[Si](C)(C)OC1C(=O)C[C@H]2CCCC[C@@H]12 (stereo not given in full),> 100 µM,–
CCN(CC)CCSc1c2ccccc2nc2c(OC)ccc(OC)c12,38.2 µM,–
CCOC(=O)c1ccc(N=Nc2cc(C(=O)OCC)ccc2O)cc1,> 100 µM,–
[N-]=[N+]=N/C1=C/CCCCC(=O)C1,> 100 µM,–
C=COC(=O)N[C@H]1CCc2cc(OC)c(OC)c(OC)c2-c2ccc(SC)c(=O)cc21,> 100 µM,–
Cc1ccc(NC(=O)CCc2nnc(N)o2)cc1,> 100 µM,–
CSc1nc(NC2OC(COC(C)=O)C(OC(C)=O)C(OC(C)=O)C2OC(C)=O)c(N=CC=Nc2c(NC3OC(COC(C)=O)C(OC(C)=O)C(OC(C)=O)C3OC(C)=O)nc(SC)n(C)c2=O)c(=O)n1C (stereo not given),> 100 µM,–
CCOC(=O)C1SC(=Nc2ccccc2)N=C1C (stereo not given),> 100 µM,–
Nc1ccn(C2OC(CO)C(O)C2O)c(=O)n1 (stereo not given),> 500 µM,15.6 µM
CN(C)CCNC(=O)c1cccc2c(Nc3ccc(S(=O)(=O)N=C(N)N)cc3)c3ccccc3nc12,59.9 µM,–
